The values below come from patent US20090062253A1, “HETEROCYCLODIAZEPINE CANNABINOID RECEPTOR MODULATORS FOR TREATMENT OF DISEASE” (KALYPSYS, INC., priority 2007, published 2009).

Test [1] has as its target T1, human cannabinoid receptor type 1 (Homo sapiens, UniProt P21554).
T1 construct: purchased Perkin Elmer RBHCB1M; host or cells: HEK 293 EBNA cells
The test is described as follows: Human CB1 Radioligand Binding Assay (basis of selectivity CB2 vs. CB1). The procedure, abridged:
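Filtration competition binding against [3H] CP-55,940 at its Kd, using membranes from HEK 293 EBNA cells expressing human CB1; 90 minutes at 30° C in 50 mM Tris-HCl pH 7.4, 2.5 mM EDTA, 5 mM MgCl2, 5.0 mg/ml BSA, 1% DMSO. Single point 10 uM or dose-response; 100 nM CP-55,940 defined 100% efficacy.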

For test [2], the target named is T2, Human CB2 (Homo sapiens, UniProt P34972).
T2 construct: expressed in transfected cells; membrane preparation
The test is described as follows: Human CB2 Radioligand Binding Assay. Particulars: membranes from stably transfected CHO CB2 cells; competition with [3H] CP-55,940; read-out: CB2 Ligand Binding Asssay. The procedure, abridged:
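Filtration competition against [3H]CP-55,940 at its Kd on membranes from CHO cells stably expressing human CB2; compounds at 10 uM single point or dose-response, 1% DMSO. Buffer 50 mM Tris-HCl pH 7.4, EGTA, MgCl2, 5.0 mg/ml BSA; 90 min at 30° C, scintillation read; 100 nM CP-55,940 = 100%.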

T1 sequence (P21554 whole entry): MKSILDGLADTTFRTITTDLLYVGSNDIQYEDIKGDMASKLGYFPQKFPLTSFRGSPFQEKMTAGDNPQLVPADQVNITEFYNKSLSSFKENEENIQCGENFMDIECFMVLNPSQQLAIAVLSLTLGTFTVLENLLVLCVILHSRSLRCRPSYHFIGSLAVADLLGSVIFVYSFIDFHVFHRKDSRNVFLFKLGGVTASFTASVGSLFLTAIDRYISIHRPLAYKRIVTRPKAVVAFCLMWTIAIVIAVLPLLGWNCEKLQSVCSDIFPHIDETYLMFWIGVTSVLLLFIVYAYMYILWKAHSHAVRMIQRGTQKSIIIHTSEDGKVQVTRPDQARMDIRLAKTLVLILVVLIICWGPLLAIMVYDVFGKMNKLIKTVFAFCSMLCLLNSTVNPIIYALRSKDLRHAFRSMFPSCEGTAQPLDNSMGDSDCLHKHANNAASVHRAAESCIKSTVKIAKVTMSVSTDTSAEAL
T2 sequence (P34972 whole entry): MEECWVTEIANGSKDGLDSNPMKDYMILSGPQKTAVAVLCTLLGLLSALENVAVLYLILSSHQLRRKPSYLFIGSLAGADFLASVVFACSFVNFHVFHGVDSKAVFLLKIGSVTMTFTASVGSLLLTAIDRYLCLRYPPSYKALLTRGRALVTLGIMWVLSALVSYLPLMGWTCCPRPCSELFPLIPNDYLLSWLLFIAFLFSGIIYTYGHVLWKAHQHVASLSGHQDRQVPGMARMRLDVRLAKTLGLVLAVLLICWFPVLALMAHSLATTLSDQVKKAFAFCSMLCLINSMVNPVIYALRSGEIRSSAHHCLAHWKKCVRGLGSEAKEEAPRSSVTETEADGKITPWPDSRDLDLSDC

In the case of `CC(C)(C)c1ccc(CC2=C(C(=O)Nc3ccc(Cl)cc3)CCCn3cncc32)cc1` [Example 82, (E)-9-(4-tert-Butylbenzyl)-N-(4-chlorophenyl)-6,7-dihydro-5H-imidazo[1,5-a]azepine-8-carboxamide], in test [1], the “Selectivity, CB2 vs. CB1” value is “− (− indicates < 10-fold)”. Also, the IC50 (radioligand displacement) in test [2] is over 1000 nM.

Regarding `CC(C)(C)c1ccc(C2=C(NC(=O)Nc3ccc(Cl)cc3)CCCn3cccc32)cc1` [Example 83, (E)-1-(9-(4-tert-Butylphenyl)-6,7-dihydro-5H-pyrrolo[1,2-a]azepin-8-yl)-3-(4-chlorophenyl)urea], in test [1], the “Selectivity, CB2 vs. CB1” value is “+ (+ indicates > 10-fold)”. Besides, in test [2], the IC50 (radioligand displacement) was under 1000 nM.

Consider `CC(C)(C)c1ccc(C2=C(NC(=O)Nc3ccc(F)cc3F)CCCn3cccc32)cc1` [Example 84, (E)-1-(9-(4-tert-Butylphenyl)-6,7-dihydro-5H-pyrrolo[1,2-a]azepin-8-yl)-3-(2,4-difluorophenyl)urea], for which, in test [1], the “Selectivity, CB2 vs. CB1” value is “+ (+ indicates > 10-fold)”. In test [2], the IC50 (radioligand displacement) is under 1000 nM.

In the case of `CC(C)(C)c1ccc(C2=C(NC(=O)Nc3ccc(F)c(F)c3)CCCn3cccc32)cc1` [Example 85, (E)-1-(9-(4-tert-Butylphenyl)-6,7-dihydro-5H-pyrrolo[1,2-a]azepin-8-yl)-3-(3,4-difluorophenyl)urea], in test [1], the “Selectivity, CB2 vs. CB1” value is given as “+ (+ indicates > 10-fold)”. Moreover, the IC50 (radioligand displacement) in test [2] is under 1000 nM.

Turning to `CC(C)(C)c1ccc(C2=C(NC(=O)Nc3ccc(Cl)cc3Cl)CCCn3cccc32)cc1` [Example 86, (E)-1-(9-(4-tert-Butylphenyl)-6,7-dihydro-5H-pyrrolo[1,2-a]azepin-8-yl)-3-(2,4-dichlorophenyl)urea], the “Selectivity, CB2 vs. CB1” value in test [1] is given as “+ (+ indicates > 10-fold)”. Moreover, in test [2], the IC50 (radioligand displacement) is under 1000 nM.

`CC(C)(C)c1ccc(C2=C(NC(=O)Nc3ccc(Cl)c(Cl)c3)CCCn3cccc32)cc1` [Example 87, (E)-1-(9-(4-tert-Butylphenyl)-6,7-dihydro-5H-pyrrolo[1,2-a]azepin-8-yl)-3-(3,4-dichlorophenyl)urea]: the “Selectivity, CB2 vs. CB1” value in test [1] is “+ (+ indicates > 10-fold)”. Moreover, the IC50 (radioligand displacement) in test [2] is over 1000 nM.

As for `CC(C)(C)c1ccc(C2=C(NC(=O)Nc3ccc(C(F)(F)F)cc3)CCCn3cccc32)cc1` [Example 88, (E)-1-(9-(4-tert-Butylphenyl)-6,7-dihydro-5H-pyrrolo[1,2-a]azepin-8-yl)-3-(4-(trifluoromethyl)phenyl)urea], in test [1], the “Selectivity, CB2 vs. CB1” value was “+ (+ indicates > 10-fold)”. Further, in test [2], the IC50 (radioligand displacement) is under 1000 nM.

Regarding `COc1ccc(COC(=O)NC2=C(c3ccc(C(C)(C)C)cc3)c3cccn3CCC2)cc1` [Example 89, (E)-4-Methoxybenzyl 9-(4-tert-butylphenyl)-6,7-dihydro-5H-pyrrolo[1,2-a]azepin-8-ylcarbamate], the “Selectivity, CB2 vs. CB1” value in test [1] is “− (− indicates < 10-fold)”. In addition, the IC50 (radioligand displacement) in test [2] is over 1000 nM.

On to `CC(C)(C)c1ccc(C2c3cccn3CCCC2C(=O)Nc2ccc(F)c(F)c2)cc1` (centres unmarked) [Example 91, 9-(4-tert-Butylphenyl)-N-(3,4-difluorophenyl)-6,7,8,9-tetrahydro-5H-pyrrolo[1,2-a]azepine-8-carboxamide], for which the “Selectivity, CB2 vs. CB1” value in test [1] is listed as “+ (+ indicates > 10-fold)”. In test [2], the IC50 (radioligand displacement) was under 1000 nM.

Consider `CC(C)(C)c1ccc(C2c3cccn3CCCC2C(=O)Nc2ccc(Cl)cc2)cc1` (centres unmarked) [Example 92, 9-(4-tert-Butylphenyl)-N-(4-chlorophenyl)-6,7,8,9-tetrahydro-5H-pyrrolo[1,2-a]azepine-8-carboxamide], for which, in test [1], the “Selectivity, CB2 vs. CB1” value is “+ (+ indicates > 10-fold)”. In addition, in test [2], the IC50 (radioligand displacement) is under 1000 nM.

Take `CC(C)(C)c1ccc(C2c3cccn3CCCC2C(=O)Nc2ccc(C(F)(F)F)cc2)cc1` (centres unmarked) [Example 93, 9-(4-tert-Butylphenyl)-N-(4-(trifluoromethyl)phenyl)-6,7,8,9-tetrahydro-5H-pyrrolo[1,2-a]azepine-8-carboxamide]: in test [1], the “Selectivity, CB2 vs. CB1” value is given as “− (− indicates < 10-fold)”. Also, in test [2], the IC50 (radioligand displacement) is under 1000 nM.

Regarding `CC(C)(C)c1ccc(C2c3cccn3CCCC2C(=O)Nc2ccc(OC(F)(F)F)cc2)cc1` (centres unmarked) [Example 94, 9-(4-tert-Butylphenyl)-N-(4-(trifluoromethoxy)phenyl)-6,7,8,9-tetrahydro-5H-pyrrolo[1,2-a]azepine-8-carboxamide], in test [1], the “Selectivity, CB2 vs. CB1” value was “− (− indicates < 10-fold)”. Besides, in test [2], the IC50 (radioligand displacement) was under 1000 nM.

Turning to `CC(C)(C)c1ccc(C2c3cccn3CCC2C(=O)Nc2ccc(C(F)(F)F)cc2)cc1` (centres unmarked) [Example 96, 8-(4-tert-Butylphenyl)-N-(4-(trifluoromethyl)phenyl)-5,6,7,8-tetrahydroindolizine-7-carboxamide], the “Selectivity, CB2 vs. CB1” value in test [1] is recorded as “− (− indicates < 10-fold)”. The IC50 (radioligand displacement) in test [2] is over 1000 nM.

Turning to `CC(C)(C)c1ccc(C2c3cccn3CCC2C(=O)Nc2ccc(OC(F)(F)F)cc2)cc1` (centres unmarked) [Example 97, 8-(4-tert-Butylphenyl)-N-(4-(trifluoromethoxy)phenyl)-5,6,7,8-tetrahydroindolizine-7-carboxamide], the “Selectivity, CB2 vs. CB1” value in test [1] is given as “− (− indicates < 10-fold)”. In test [2], the IC50 (radioligand displacement) is over 1000 nM.

`CC(C)(C)c1ccc(C2[C@@H]3CCCN3CCCN2C(=O)Nc2ccc(F)cc2F)cc1` (stereo partly drawn) [Example 129, (9aS)-1-(4-tert-Butylphenyl)-N-(2,4-difluorophenyl)hexahydro-1H-pyrrolo[1,2-a][1,4]diazepine-2(3H)-carboxamide]: the “Selectivity, CB2 vs. CB1” value in test [1] was “+ (+ indicates > 10-fold)”. The IC50 (radioligand displacement) in test [2] is under 1000 nM.

For the compound `CC(C)(C)c1ccc(C2[C@@H]3CCCN3CCCN2C(=O)Nc2ccc(F)c(F)c2)cc1` (stereo partly drawn) [Example 130, (9aS)-1-(4-tert-Butylphenyl)-N-(3,4-difluorophenyl)hexahydro-1H-pyrrolo[1,2-a][1,4]diazepine-2(3H)-carboxamide], the “Selectivity, CB2 vs. CB1” value in test [1] was “+ (+ indicates > 10-fold)”. For the same compound, the IC50 (radioligand displacement) in test [2] was under 1000 nM.

As to `CC(C)(C)c1ccc(C2[C@@H]3CCCN3CCCN2C(=O)Nc2ccc(Cl)cc2)cc1` (stereo partly drawn) [Example 131, (9aS)-1-(4-tert-Butylphenyl)-N-(4-chlorophenyl)hexahydro-1H-pyrrolo[1,2-a][1,4]diazepine-2(3H)-carboxamide], in test [1], the “Selectivity, CB2 vs. CB1” value is on record as “+ (+ indicates > 10-fold)”. For the same compound, in test [2], the IC50 (radioligand displacement) is under 1000 nM.

For the compound `CC(C)(C)c1ccc(C2=C(C(=O)Nc3ccc(C(F)(F)F)cc3)CCn3cccc32)cc1` [Example 132, 8-(4-tert-Butylphenyl)-N-(4-(trifluoromethyl)phenyl)-5,6-dihydroindolizine-7-carboxamide], in test [1], the “Selectivity, CB2 vs. CB1” value is recorded as “− (− indicates < 10-fold)”. In addition, the IC50 (radioligand displacement) in test [2] was under 1000 nM.

In the case of `CC(C)(C)c1ccc(C2c3cccnc3CCCN2C(=O)Nc2ccc(F)cc2F)cc1` (centres unmarked) [Example 134, 5-(4-tert-Butylphenyl)-N-(2,4-difluorophenyl)-8,9-dihydro-5H-pyrido[3,2-c]azepine-6(7H)-carboxamide], in test [1], the “Selectivity, CB2 vs. CB1” value is recorded as “+ (+ indicates > 10-fold)”. The IC50 (radioligand displacement) in test [2] was under 1000 nM.

As to `CC(C)(C)c1ccc(C2c3cccnc3CCCN2C(=O)Nc2ccc(F)c(F)c2)cc1` (centres unmarked) [Example 135, 5-(4-tert-Butylphenyl)-N-(3,4-difluorophenyl)-8,9-dihydro-5H-pyrido[3,2-c]azepine-6(7H)-carboxamide], the “Selectivity, CB2 vs. CB1” value in test [1] is on record as “+ (+ indicates > 10-fold)”. For the same compound, the IC50 (radioligand displacement) in test [2] is under 1000 nM.

On to `CC(C)(C)c1ccc(C2c3cccnc3CCCN2C(=O)Nc2ccc(Cl)cc2Cl)cc1` (centres unmarked) [Example 136, 5-(4-tert-Butylphenyl)-N-(2,4-dichlorophenyl)-8,9-dihydro-5H-pyrido[3,2-c]azepine-6(7H)-carboxamide], for which the “Selectivity, CB2 vs. CB1” value in test [1] was “+ (+ indicates > 10-fold)”. Also, the IC50 (radioligand displacement) in test [2] was over 1000 nM.

`CC(C)(C)c1ccc(C2c3cccnc3OCCN2C(=O)Nc2ccc(F)cc2F)cc1` (centres unmarked) [Example 138, 5-(4-tert-Butylphenyl)-N-(2,4-difluorophenyl)-2,3-dihydropyrido[3,2-f][1,4]oxazepine-4(5H)-carboxamide]: the “Selectivity, CB2 vs. CB1” value in test [1] was “− (− indicates < 10-fold)”. Moreover, the IC50 (radioligand displacement) in test [2] is over 1000 nM.

In the case of `CC(C)(C)c1ccc(C2c3cccnc3OCCN2C(=O)Nc2ccc(F)c(F)c2)cc1` (centres unmarked) [Example 139, 5-(4-tert-Butylphenyl)-N-(3,4-difluorophenyl)-2,3-dihydropyrido[3,2-f][1,4]oxazepine-4(5H)-carboxamide], the “Selectivity, CB2 vs. CB1” value in test [1] is listed as “+ (+ indicates > 10-fold)”. In addition, the IC50 (radioligand displacement) in test [2] was over 1000 nM.

Turning to `CC(C)(C)c1ccc(C2c3cccnc3OCCN2C(=O)Nc2ccc(Cl)cc2Cl)cc1` (centres unmarked) [Example 140, 5-(4-tert-Butylphenyl)-N-(2,4-dichlorophenyl)-2,3-dihydropyrido[3,2-f][1,4]oxazepine-4(5H)-carboxamide], the “Selectivity, CB2 vs. CB1” value in test [1] is on record as “− (− indicates < 10-fold)”. The IC50 (radioligand displacement) in test [2] is over 1000 nM.

On to “(8,9-cis)-9-Phenyl-N-(4-(trifluoromethyl)phenyl)-6,7,8,9-tetrahydro-5H-pyrrolo[1,2-a]azepine-8-carboxamide [Example 112]”, for which the “Selectivity, CB2 vs. CB1” value in test [1] is recorded as “− (− indicates < 10-fold)”. Besides, the IC50 (radioligand displacement) in test [2] is over 1000 nM.
